These results are taken from patent US5354754A, “Pyrrolopyrimidines, their production and use” (Takeda Chemical Industries, Ltd., priority 1989, dated 1994).

Assay [1] has as its system dihydrofolic acid reductase. The conditions noted are these: in words, prior art; cited from earlier work.
Assay [2] relates to glycinamide ribonucleotide transformylase. The conditions noted are these: in words, Journal of Medicinal Chemistry, 28, 914(1985); cited from earlier work.
Assay [3] deals with Human epidermoid carcinoma KB cells. The assay is described as follows: cell growth inhibiting effect on KB cells (MTT, 72 hours). Format: cell-based. The conditions noted are these: 37° C., 5% CO2, MTT, absorbance at 590 nm. As to the method: The cell growth inhibiting effect (IC50) on KB cells of the compounds obtained in the following Examples was measured by the following method. (Hereinafter, % means weight %.)
Human epidermoid carcinoma KB cells (1×10^4 /ml) prepared by a conventional method were inoculated in a volume of 0.1 ml for each hole of the 96-microwell plate, and cultured at 37° C. for 24 hours without agitation in an atmosphere of 5% CO2. A 10% solution of one compound obtained by Example in 10% MEM (minimal essential medium, Nissui Pharmaceutical Co. Ltd, Japan) was added thereto, and the cells were cultured again at 37° C. for 72 hours without agitation in an atmosphere of 5% CO2. The culture was removed by using a micropipet, and another 10% solution 0.1 ml of MTT [3-(4,5-dimethylthiazol-2-yl)-2,5-diphenyltetrazolium bromide] (Dojin Laboratories, Japan) in 10% MEM (1.0 mg/ml) was added thereto. The cells were cultured at 37° C. for 4 hours. A 10% SDS [sodium dodecylsulfate](Wako Pure Chimicals, Japan) solution (0.1 ml) was further added, and the cells were cultured at 37° C. for 24 hours. The absorbance at 590 nm was measured, and the concentration of a drug needed for decreasing the number of cells in non-treated control group to a degree of 50% was determined as IC50 value of the compound.

Values after ≈ are worked out from the molar mass of the structure shown.

As for `CN(Cc1cnc2nc(N)nc(N)c2n1)c1ccc(C(=O)N[C@@H](CCC(=O)O)C(=O)O)cc1` [methotrexate], in assay [1], the “inhibition of dihydrofolic acid reductase” value was “inhibit the reduction from dihydrofolic acid to tetrahydrofolic acid by coupling strongly with the dominant enzyme in the second step”.

As for `Nc1nc2c(c(=O)[nH]1)C[C@@H](CCc1ccc(C(=O)N[C@@H](CCC(=O)O)C(=O)O)cc1)CN2` [DDATHF], the “inhibition of dihydrofolic acid reductase” value in assay [1] was “does not inhibit dihydrofolic acid reductase”. Also, the “inhibition of glycinamide ribonucleotide transformylase” value in assay [2] is on record as “main mechanism of which consists in inhibition of glycinamide ribonucleotide transformylase”.

As for `Nc1nc(N)c2c(CCCc3ccc(C(=O)N[C@@H](CCC(=O)O)C(=O)O)s3)c[nH]c2n1` [Example 3, N-[5-(3-(2,4-diamino-7H-pyrrolo[2,3-d]pyrimidin-5-yl)propyl)-2-thenoyl]-L-glutamic acid], the IC50 in assay [3] was found to be 0.43 ng/mL (≈ 0.963 nM).
